What all share (assay type): in vivo, human
The test system of data set [1] is patients with major depressive disorder. As to the kind of experiment: Sexual Functioning Inventory (SFI) in placebo- and paroxetine-controlled MDD trial. Further details: scale not given here. Conditions: LOCF. The text has this:
(§1) A sequential parallel comparison design (SPCD) is utilized. […] The study is 12 weeks in duration, with two 6-week phases. The primary outcome measure is change on the Montgomery Asberg Depression Rating Scale (MADRS). Secondary outcomes include Hamilton Rating Scale for Depression (HAM-D), Clinical Global Impression of Improvement (CGI-I), Sexual Functioning Inventory (SFI), Clinical Global Impression (Improvement and Severity versions), and the Massachusetts General Hospital (MGH) Cognitive and Physical Functioning Questionnaire (MGH-CPFQ). Male and female patients, between the ages of 18-65, are eligible who had MDD, based on the Structured Clinical Interview for DSM Disorders (SCID) interview, and validated by remote raters, a history of non-response to an adequate trial of an antidepressant during the current episode of MDD (an adequate dose for >8 weeks), and a HAM-D-17 score of >18 at screening.
(§2) In addition to standard inclusion criteria the trial requires: 1) diagnosis of MDD, based on the Structured Clinical Interview for DSM Disorders Clinical Trials version (SCID-CT), validated by remote independent raters using the SAFER criteria interview, 2) one and only one antidepressant therapy (ADT) failure in the current episode of MDD, treated with an adequate dose of one of an allowed standard antidepressant (paroxetine or an monoamine oxidase inhibitor (MAOI) not allowed) during the current episode for >6 weeks, with the same, adequate dose for >4 weeks, 3) HAM-D17≧18 at the end of screening phase, 4)<25% reduction in Quick Inventory of Depressive Symptoms Self-Rated (QIDS-SR) score between the screen and baseline visits. Inadequate response: defined as <50% reduction in depressive symptom severity, assessed by the MGH Antidepressant Treatment Response Questionnaire (ATRQ) administered by remote, independent raters (Targum, S. et al., CNS Neuroscience & Therapeutics, 2010, 16 (5), 322-325). An adequate trial is defined as an ADT>6 weeks at least at the minimum dose specified in the MGH ATRQ.
The SCID-CT is administered by study clinicians at the screening visit to diagnose Axis I disorders. The remote, independent raters also administer the SAFER Criteria Inventory (SCI) during the screening phase to assess whether the MDD is a “valid” clinical entity.
The primary efficacy assessment is the MADRS, administered at every study visit and clinicians complete it by using a structured interview guide developed by Massachusetts General Hospital (MGH). The primary tolerability assessment is the change in the SFI, completed by the patient at every study visit. The MGH-CPFQ, a brief self-report inventory to assess rates of significant cognitive symptoms, sleepiness and fatigue, is filled out by patients at every visit. The Columbia-Suicide Severity Rating Scale (C-SSRS) (Posner K. et al., American Journal of Psychiatry, 2011, 168 (12)1266-77) is administered at every visit. Vital signs are recorded at each visit; physical exam is performed at screen and week 12 (or early termination). Laboratory tests are obtained at screen, baseline, and weeks 2, 4, 6, 8, 10, 12 (or early termination). Twelve-lead ECGs are obtained at screen, baseline, and weeks 3, 6, 9, 12 (or early termination). Consumptive habits (smoking, alcohol, and caffeinated beverages) are recorded at every visit. Adverse events and concomitant medications are collected at every visit.

Data set [2] shares this test system. Kind of data set: Montgomery Asberg Depression Rating Scale (MADRS) in MDD trial.
Description: (§3) A multicenter, randomized, double blind, placebo- and paroxetine-controlled trial of amitifadine for major depressive disorder (MDD) non-responsive to an adequate trial of an antidepressant therapy in the current depressive episode. A sequential parallel comparison design (SPCD) is utilized. […] The study is 12 weeks in duration, with two 6-week phases. The primary outcome measure is change on the Montgomery Asberg Depression Rating Scale (MADRS). Secondary outcomes include Hamilton Rating Scale for Depression (HAM-D), Clinical Global Impression of Improvement (CGI-I), Sexual Functioning Inventory (SFI), Clinical Global Impression (Improvement and Severity versions), and the Massachusetts General Hospital (MGH) Cognitive and Physical Functioning Questionnaire (MGH-CPFQ). […]
as §2, with “An adequate trial is defined as an ADT>6 weeks at least at the minimum dose specified in the MGH ATRQ.” left out
The primary efficacy assessment is the MADRS, administered at every study visit and clinicians complete it by using a structured interview guide developed by Massachusetts General Hospital (MGH). […] Vital signs are recorded at each visit; physical exam is performed at screen and week 12 (or early termination). […]

Data set [3] has the same test system. Kind of data set: Clinical Global Impression of Improvement (CGI-I) in MDD trial. The conditions noted are these: amitifadine 50 mg or 100 mg; paroxetine 40 mg at both 6 and 12 weeks.
Description: as §1, with “A multicenter, randomized, double blind, placebo- and paroxetine-controlled trial of amitifadine for major depressive disorder (MDD) non-responsive to an adequate trial of an antidepressant therapy in the current depressive episode. A sequential” for “A sequential”, “at screening. […]” for “at screening.”

For data set [4] the test system is unchanged. Kind of data set: Vital signs (heart rate, blood pressure) in MDD trial. The conditions noted are these: amitifadine 50 mg and 100 mg.
Description: as §3
The primary efficacy assessment is the MADRS, administered at every study visit and clinicians complete it by using a structured interview guide developed by Massachusetts General Hospital (MGH). […] Vital signs are recorded at each visit; physical exam is performed at screen and week 12 (or early termination). […] Consumptive habits (smoking, alcohol, and caffeinated beverages) are recorded at every visit. […]

For data set [5] the test system is unchanged. Kind of data set: Sexual Functioning Inventory (SFI) in placebo- and paroxetine-controlled MDD trial. Details: Mean Change from Baseline SFI, Item 3 / Mean Change from Baseline SFI, Item 4 / Mean Change from Baseline SFI, Item 5 / Mean Change from Baseline SFI Total / Mean Change from Baseline SFI, Item 1 / Mean Change from Baseline SFI, Item 2: scale not given here. Conditions: amitifadine 100 mg.

The mark [6] stands for this setting: both genders, amitifadine 100 mg vs paroxetine 40 mg.
[7] abbreviates: female, amitifadine 100 mg, compare vs placebo.
The mark [8] stands for this setting: LOCF, female, compare vs placebo.

Data on 2 compounds can be found in patent US20160279098A1, “NOVEL METHODS” (EUTHYMICS BIOSCIENCE, INC., priority 2013, published 2016).

As to `Clc1ccc([C@]23CNC[C@H]2C3)cc1Cl` [Amitifadine], in data set [1] (setting [6]), the “Mean Change from Baseline SFI Total” value is recorded as −3.86; the “Mean Change from Baseline SFI, Item 1” value is listed as −1.02; the “Mean Change from Baseline SFI, Item 2” value was −1.00; the “Mean Change from Baseline SFI, Item 3” value was −0.80. Further, in data set [1] (setting [6]), the “Mean Change from Baseline SFI, Item 4” value is given as −0.79 and the “Mean Change from Baseline SFI, Item 5” value is −1.00. In data set [1] (setting [7]), the “Mean Change from Baseline SFI, Item 2” value is given as −1.12 and the “Mean Change from Baseline SFI, Item 5” value is −1.09. The “difference between paroxetine and amitifadine 100 mg in improvement” value in data set [2] (exploratory analyses) is on record as “non-significant”. Further, the “MADRS change from baseline compared to placebo” value in data set [2] (primary analysis, amitifadine 50 mg or 100 mg, paroxetine 40 mg) is “no significant difference”. The “CGI-Improvement compared to placebo” value in data set [3] is “no significant differences”. Besides, in data set [4], the “changes in heart rate or blood pressure” value is on record as “Neither dose is associated with significant changes”. Also, in data set [5] (setting [8]), the “Mean Change from Baseline SFI Total” value is recorded as −4.41; the “Mean Change from Baseline SFI, Item 1” value is on record as −1.16; the “Mean Change from Baseline SFI, Item 3” value is −0.97. Further, in data set [5] (LOCF, male, compare vs placebo), the “Mean Change from Baseline SFI Total” value is −3.12; the “Mean Change from Baseline SFI, Item 1” value is reported as −0.83; the “Mean Change from Baseline SFI, Item 2” value is listed as −0.83; the “Mean Change from Baseline SFI, Item 3” value is reported as −0.58. In data set [5] (LOCF, male, compare vs placebo), the “Mean Change from Baseline SFI, Item 4” value is recorded as −0.79 and the “Mean Change from Baseline SFI, Item 5” value is given as −0.88. In data set [5] (most individual items), the “individual items of the SFI (anorgasmia, arousal, overall satisfaction) versus paroxetine” value is “significantly less impairing”. Moreover, the “SFI change from baseline compared with placebo in women” value in data set [5] (post-hoc analyses by gender, women) was “significant improvement”.
Turning to `Fc1ccc([C@@H]2CCNC[C@H]2COc2ccc3c(c2)OCO3)cc1` [Paroxetine, reference compound], in data set [1] (setting [6]), the “Mean Change from Baseline SFI Total” value was −1.52; the “Mean Change from Baseline SFI, Item 1” value is on record as −0.57; the “Mean Change from Baseline SFI, Item 2” value is −0.45; the “Mean Change from Baseline SFI, Item 3” value is listed as −0.27. In data set [1] (setting [6]), the “Mean Change from Baseline SFI, Item 4” value is −0.13 and the “Mean Change from Baseline SFI, Item 5” value is −0.23. The “improvement compared to both placebo and amitifadine 50 mg” value in data set [2] (exploratory analyses, paroxetine 40 mg) was “significantly better improvement”. Besides, the “CGI-Improvement compared to placebo” value in data set [3] is listed as “significant difference”.
